Data as given in patent US8716284B2, “Adamantyl diamide derivatives and uses of same” (H. Lundbeck A/S, priority 2008, dated 2014).

The molecules below were run against T1, rat metabotropic glutamate receptor 5 (mGluR5) (Rattus norvegicus, UniProt P31424) (assay: Calcium mobilization assay (FLIPR) for negative or positive allosteric activity, HEK 293 cells). Settings: HEK293, negative allosteric modulation, inhibition of EC80 glutamate response; read-out: FLIPR maximum inhibition.
T1 construct: expressed in transfected cells; host or cells: HEK 293
T1 sequence (P31424 21-1171 isoform P31424-2 limits assumed): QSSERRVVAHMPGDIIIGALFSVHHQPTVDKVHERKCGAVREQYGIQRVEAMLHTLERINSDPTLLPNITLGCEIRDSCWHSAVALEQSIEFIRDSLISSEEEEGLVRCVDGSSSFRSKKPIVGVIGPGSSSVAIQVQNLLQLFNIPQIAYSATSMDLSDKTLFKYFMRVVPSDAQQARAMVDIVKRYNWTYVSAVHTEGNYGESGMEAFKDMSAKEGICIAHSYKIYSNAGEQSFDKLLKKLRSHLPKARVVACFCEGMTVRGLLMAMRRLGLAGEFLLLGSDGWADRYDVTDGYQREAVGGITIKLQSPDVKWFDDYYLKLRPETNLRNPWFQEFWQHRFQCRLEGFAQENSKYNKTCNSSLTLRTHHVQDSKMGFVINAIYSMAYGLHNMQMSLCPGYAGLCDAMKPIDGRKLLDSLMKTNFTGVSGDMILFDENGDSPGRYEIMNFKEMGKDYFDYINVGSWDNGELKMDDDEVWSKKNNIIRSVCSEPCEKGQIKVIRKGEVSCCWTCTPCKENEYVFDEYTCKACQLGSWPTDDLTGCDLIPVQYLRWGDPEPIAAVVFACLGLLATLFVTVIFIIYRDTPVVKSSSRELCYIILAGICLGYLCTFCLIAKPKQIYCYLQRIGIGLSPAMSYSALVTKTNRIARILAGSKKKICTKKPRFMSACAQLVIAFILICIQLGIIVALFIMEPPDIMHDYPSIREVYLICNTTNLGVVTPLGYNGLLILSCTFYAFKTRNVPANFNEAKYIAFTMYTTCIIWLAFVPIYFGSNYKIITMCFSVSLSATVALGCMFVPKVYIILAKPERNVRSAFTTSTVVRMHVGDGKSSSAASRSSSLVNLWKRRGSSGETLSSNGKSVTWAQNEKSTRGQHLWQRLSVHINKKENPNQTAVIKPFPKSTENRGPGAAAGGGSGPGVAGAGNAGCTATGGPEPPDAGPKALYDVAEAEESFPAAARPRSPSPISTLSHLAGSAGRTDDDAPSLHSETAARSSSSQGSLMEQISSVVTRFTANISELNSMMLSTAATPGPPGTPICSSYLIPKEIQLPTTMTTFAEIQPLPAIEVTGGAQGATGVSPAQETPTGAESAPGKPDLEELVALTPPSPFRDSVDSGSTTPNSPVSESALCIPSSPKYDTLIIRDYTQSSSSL
Format: cell-based
In short: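 HEK 293 cells stably expressing rat mGluR5, Fluo-4 loaded in HEPES-buffered HBSS pH 7.4 with 0.1% BSA and probenecid. Compound added with EC20 (potentiation) or EC80 (inhibition) glutamate; fluorescence read over 3 min at room temperature. Basal-subtracted maximum fluorescence change fitted to Hill equation.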

SMILES	Emax
O=C(NC12CC3CC(C1)CC(NC(=O)C1CCC1)(C3)C2)c1ccccn1 [Example 82, Pyridine-2-carboxylic acid [3-(cyclobutanecarbonyl-amino)-adamantan-1-yl]-amide]	63 to 99%
Cc1nc(C(=O)NC23CC4CC(CC(NC(=O)c5cnccn5)(C4)C2)C3)cs1 [Example 187, Pyrazine-2-carboxylic acid {3-[(2-methyl-thiazole-4-carbonyl)-amino]-adamantan-1-yl}-amide]	63 to 99%
O=C(NC12CC3CC(C1)CC(NC(=O)c1ccnc(C(F)(F)F)n1)(C3)C2)c1ccccn1 [Example 112, 2-Trifluoromethyl-pyrimidine-4-carboxylic acid {3-[(pyridine-2-carbonyl)-amino]-adamantan-1-yl}-amide]	70 to 99%
COc1cccc(C(=O)NC23CC4CC(CC(NC(=O)c5cncc(C)n5)(C4)C2)C3)c1F [Example 167, 6-Methyl-pyrazine-2-carboxylic acid [3-(2-fluoro-3-methoxy-benzoylamino)-adamantan-1-yl]-amide]	63 to 99%
O=C(NC12CC3CC(C1)CC(NC(=O)c1ccccn1)(C3)C2)c1cccc(Cl)c1 [Example 6, Pyridine-2-carboxylic acid [3-(3-chloro-benzoylamino)-adamantan-1-yl]-amide]	90 to 99%
Cc1cccc(C(=O)NC23CC4CC(C2)CC(NC(=O)c2cccc(C(C)(C)O)n2)(C4)C3)n1 [Example 144, 6-Methyl-pyridine-2-carboxylic acid (3-{[6-(1-hydroxy-1-methyl-ethyl)-pyridine-2-carbonyl]-amino}-adamantan-1-yl)-amide]	70 to 99%
CC(=O)c1cccc(C(=O)NC23CC4CC(CC(NC(=O)c5cccc(C)n5)(C4)C2)C3)n1 [Example 142, 6-Methyl-pyridine-2-carboxylic acid {3-[(6-acetyl-pyridine-2-carbonyl)-amino]-adamantan-1-yl}-amide]	70 to 99%
O=C(NC12CC3CC(C1)CC(NC(=O)c1cccs1)(C3)C2)c1cccs1 [Example 14, N,N′-(1,3-adamantylene)bis(thiophene-2-carboxamide)]	63 to 99%
O=C(NC12CC3CC(C1)CC(NC(=O)c1ccncc1)(C3)C2)c1ccncc1 [Example 4, N,N′-(1,3-adamantylene)bis(4-pyridinecarboxamide)]	90 to 99%
Cc1cccc(C(=O)NC23CC4CC(CC(NC(=O)c5cccnc5)(C4)C2)C3)n1 [Example 115, 6-Methyl-pyridine-2-carboxylic acid {3-[(pyridine-3-carbonyl)-amino]-adamantan-1-yl}-amide]	70 to 99%
Cc1cccc(C(=O)NC23CC4CC(C2)CC(NC(=O)c2cc(C)n(C)n2)(C4)C3)n1 [Example 127, 6-Methyl-pyridine-2-carboxylic acid {3-[(1,5-dimethyl-1H-pyrazole-3-carbonyl)-amino]-adamantan-1-yl}-amide]	70 to 99%
Cc1cccc(C(=O)NC23CC4CC(C2)CC(NC(=O)c2ccno2)(C4)C3)n1 [Example 31, 6-Methyl-pyridine-2-carboxylic acid {3-[(isoxazole-5-carbonyl)-amino]-adamantan-1-yl}-amide]	63 to 99%
Cc1cccc(C(=O)NC23CC4CC(CC(NC(=O)c5cccc(CCl)c5)(C4)C2)C3)n1 [Example 45, 6-Methyl-pyridine-2-carboxylic acid [3-(3-chloromethyl-benzoylamino)-adamantan-1-yl]-amide]	63 to 99%
Cc1cccc(C(=O)NC23CC4CC(CC(NC(=O)c5cc(F)ccn5)(C4)C2)C3)n1 [Example 125, 6-Methyl-pyridine-2-carboxylic acid {3-[(4-fluoropyridine-2-carbonyl)-amino]-adamantan-1-yl}-amide]	70 to 99%
Cc1ccn2cc(C(=O)NC34CC5CC(CC(NC(=O)c6cccc(F)c6)(C5)C3)C4)nc2c1 [Example 104, 7-Methyl-imidazo[1,2-a]pyridine-2-carboxylic acid [3-(3-fluoro-benzoylamino)-adamantan-1-yl]-amide]	63 to 99%
Cc1cccc(C(=O)NC23CC4CC(C2)CC(NC(=O)c2nc5ccccc5s2)(C4)C3)n1 [Example 36, Benzothiazole-2-carboxylic acid {3-[(6-methyl-pyridine-2-carbonyl)-amino]-adamantan-1-yl}-amide]	63 to 99%
Cc1cccc(C(=O)NC23CC4CC(C2)CC(NC(=O)c2nccc(C)n2)(C4)C3)n1 [Example 141, 4-Methyl-pyrimidine-2-carboxylic acid {3-[(6-methyl-pyridine-2-carbonyl)-amino]-adamantan-1-yl}-amide]	70 to 99%

Next, values leading:

Emax	SMILES
63 to 99%	CN1CCN(c2cccc(C(=O)NC34CC5CC(CC(NC(=O)c6ccccn6)(C5)C3)C4)n2)CC1 [Example 198, 6-(4-Methyl-piperazin-1-yl)-pyridine-2-carboxylic acid {3-[(pyridine-2-carbonyl)-amino]-adamantan-1-yl}-amide]
63 to 99%	Cc1cccc(C(=O)NC23CC4CC(C2)CC(NC(=O)c2cccc(N(C)CCN(C)C)n2)(C4)C3)n1 [Example 204, 6-[(2-Dimethylamino-ethyl)-methyl-amino]-pyridine-2-carboxylic acid{3-[(6-methyl-pyridine-2-carbonyl)-amino]-adamantan-1-yl}-amide]
63 to 99%	CN(C)C1CCN(c2cccc(C(=O)NC34CC5CC(CC(NC(=O)c6ccccn6)(C5)C3)C4)n2)C1 (centres unmarked) [Example 199, 6-(3-Dimethylamino-pyrrolidin-1-yl)-pyridine-2-carboxylic acid {3-[(pyridine-2-carbonyl)-amino]-adamantan-1-yl}-amide]
63 to 99%	O=C(NC12CC3CC(C1)CC(NC(=O)c1ccnc(C(F)(F)F)n1)(C3)C2)c1cnccn1 [Example 190, 2-Trifluoromethyl-pyrimidine-4-carboxylic acid {3-[(pyrazine-2-carbonyl)-amino]-adamantan-1-yl}-amide]
63 to 99%	COCCCNc1cccc(C(=O)NC23CC4CC(CC(NC(=O)c5ccccn5)(C4)C2)C3)n1 [Example 220, 6-(3-Methoxy-propylamino)-pyridine-2-carboxylic acid {3-[(pyridine-2-carbonyl)-amino]-adamantan-1-yl}-amide]
63 to 99%	NC(=O)[C@@H]1CCCN1c1cccc(C(=O)NC23CC4CC(CC(NC(=O)c5cccc(F)c5)(C4)C2)C3)n1 [Example 251, 6-((S)-2-Carbamoyl-pyrrolidin-1-yl)-pyridine-2-carboxylic acid [3-(3-fluoro-benzoylamino)-adamantan-1-yl]-amide]
63 to 99%	Cc1cccc(C(=O)NC23CC4CC(C2)CC(NC(=O)c2cccc(N(C)CCO)n2)(C4)C3)n1 [Example 209, 6-[(2-Hydroxy-ethyl)-methyl-amino]-pyridine-2-carboxylic acid {3-[(6-methyl-pyridine-2-carbonyl)-amino]-adamantan-1-yl}-amide]
63 to 99%	Cc1cccc(C(=O)NC23CC4CC(C2)CC(NC(=O)c2cccc(-n5ccnc5)n2)(C4)C3)n1 [Example 254, 6-Imidazol-1-yl-pyridine-2-carboxylic acid {3-[(6-methyl-pyridine-2-carbonyl)-amino]-adamantan-1-yl}-amide]
63 to 99%	O=C(NC12CC3CC(C1)CC(NC(=O)c1cccc(N4CCOCC4)n1)(C3)C2)c1ccccn1 [Example 197, 6-Morpholin-4-yl-pyridine-2-carboxylic acid {3-[(pyridine-2-carbonyl)-amino]-adamantan-1-yl}-amide]
